These results are taken from patent publication US10793568B2, “Hormone receptor modulators for treating metabolic conditions and disorders” (ARDELYX, INC., priority 2016, dated 2020).

The EC50 is the concentration giving half of the maximal effect. Usually pEC50 stands for −log10 of the EC50, conventionally taken in molar units. A lower pEC50 goes with a large EC50.

Where two headings read alike, the source gives them in different places.

The target in test [1] is human Farnesoid X receptor ligand-binding domain/Gal4 DNA binding domain chimera (Homo sapiens (Human), UniProt Q96RI1). The experiment in a line: Cell-based assay of FXR activation (FXR-UAS-bla HEK 293T beta-lactamase reporter). The conditions noted are these: cellular FXR beta-lactamase reporter assay; for Emax: HEK-293T, extent of activation relative to GW4064, read-out: % Efficacy; for EC50: FXR-UAS-bla HEK 293T cells, 16 h, pEC50 = -log EC50. An outline of the steps: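 Readout is cleavage of the CCF4 FRET substrate (409 nm excitation, blue 447 nm signal) by beta-lactamase, expressed under UAS control after a Gal4–human FXR LBD chimera is activated in HEK 293T cells. Compounds were added as 3-fold dilutions for 16 h at 37 °C in 2% charcoal-stripped FBS medium. Curves were fit to a 3-parameter logistic equation to give pEC50, with % activation relative to GW4064.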
human Farnesoid X receptor ligand-binding domain/Gal4 DNA binding domain chimera, sequence (Q96RI1 262-486, change not shown): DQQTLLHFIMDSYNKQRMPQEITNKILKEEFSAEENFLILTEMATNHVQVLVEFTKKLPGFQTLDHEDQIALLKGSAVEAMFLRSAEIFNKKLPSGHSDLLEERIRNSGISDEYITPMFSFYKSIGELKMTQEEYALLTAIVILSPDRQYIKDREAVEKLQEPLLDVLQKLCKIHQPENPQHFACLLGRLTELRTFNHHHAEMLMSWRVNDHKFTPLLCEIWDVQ
human Farnesoid X receptor ligand-binding domain/Gal4 DNA binding domain chimera, sequence (P04386 1-147 partner): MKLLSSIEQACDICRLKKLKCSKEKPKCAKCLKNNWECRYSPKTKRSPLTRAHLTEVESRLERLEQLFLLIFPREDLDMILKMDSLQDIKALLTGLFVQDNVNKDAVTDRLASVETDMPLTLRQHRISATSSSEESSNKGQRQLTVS
(Reporter assays use an easily measured gene product as a stand-in for the process of interest.)

Test [2] concerns the target ligand binding domain of human FXR (Homo sapiens (Human), UniProt Q96RI1). Description: FXR ligand binding assay (LanthaScreen TR-FRET, SRC2-2 peptide recruitment). The note with it: for pEC50: -log EC50, concentration required to produce 50% activation; for Emax: read-out: % Efficacy. Background: In TR-FRET formats the signal depends on donor and acceptor labels being close together.

The mark [3] stands for this setting: extent of activation relative to GW4064.

ligand binding domain of human FXR, sequence (Q96RI1 262-486): as the sequence (Q96RI1 262-486, change not shown) above

`O=C(O)c1cnc(N2C[C@@H]3C[C@H]2C[C@H]3OCc2c(-c3c(Cl)cccc3Cl)noc2C2CC2)nc1` [Compound I-145, 2-[(1S,4S,5R)-5-{[5-cyclopropyl-3-(2,6-dichlorophenyl)-1,2-oxazol-4-yl]methoxy}-2-azabicyclo[2.2.1]heptan-2-yl]pyrimidine-5-carboxylic Acid]: in test [1], the Emax is 108% and a half-maximal effect (EC50) was put at 63.1 nM. The pEC50 in test [2] is 8. In addition, the Emax in test [2] (setting [3]) amounted to 118%.

Regarding `Cc1cccc(Cl)c1-c1noc(C2CC2)c1CO[C@@H]1C[C@@H]2C[C@H]1CN2c1nc2c(O[C@H]3CCOC3)cc(C(=O)O)cc2s1` [Compound I-274, 2-((1S,4S,5R)-5-((3-(2-chloro-6-methylphenyl)-5-cyclopropylisoxazol-4-yl)methoxy)-2-azabicyclo[2.2.1]heptan-2-yl)-4-(((S)-tetrahydrofuran-3-yl)oxy)benzo[d]thiazole-6-carboxylic acid], the figures for the Emax in test [1] and in test [2] (setting [3]) were 100% and 150%, respectively. In addition, the EC50 in test [1] is 0.631 nM. This molecule came in with a pEC50 in test [2] of 8.8.

In the case of `O=C(O)c1cc(C2CCCC2)c2nc(N3C[C@@H]4C[C@H]3C[C@H]4OCc3c(C4CCC5(CC4)CC5)noc3C3CC3)sc2c1` [Compound I-283, 4-cyclopentyl-2-((1S,4S,5R)-5-((5-cyclopropyl-3-(spiro[2.5]octan-6-yl)isoxazol-4-yl)methoxy)-2-azabicyclo[2.2.1]heptan-2-yl)benzo[d]thiazole-6-carboxylic acid], in test [1], the Emax came to 104% and the concentration giving a half-maximal response (EC50) is 25.1 nM. This molecule also had a pEC50 in test [2] of 7. Also, the Emax in test [2] (setting [3]) is 114%.

Take `O=C(O)c1ccc(N2C(=O)[C@@H]3C[C@H]2C[C@H]3OCc2c(-c3c(Cl)cccc3Cl)noc2C2CC2)c(F)c1` [Compound I-315, 4-[(1S,4R,5R)-5-{[5-cyclopropyl-3-(2,6-dichlorophenyl)-1,2-oxazol-4-yl]methoxy}-3-oxo-2-azabicyclo[2.2.1]heptan-2-yl]-3-fluorobenzoic Acid]: in test [1], the Emax is 106% and the 50% effective concentration (EC50) is 25.1 nM. Besides, the pEC50 in test [2] came to 7.4. In addition, the Emax in test [2] (setting [3]) is 157%.

As for `Cc1cccc(C)c1-c1noc(C2CC2)c1CO[C@@H]1C[C@@H]2C[C@H]1CN2c1ccc(C(=O)O)cc1` [Compound I-117, 4-[(1S,4S,5R)-5-{[5-cyclopropyl-3-(2,6-dimethylphenyl)-1,2-oxazol-4-yl]methoxy}-2-azabicyclo[2.2.1]heptan-2-yl]benzoic Acid], in test [1], the Emax came to 100% and a half-maximal response (EC50) required 7.94 nM. The same molecule yielded a pEC50 in test [2] of 8.2. In addition, the Emax in test [2] (setting [3]) is 113%.

As for `CC(O)CCS(=O)(=O)NC(=O)c1ccc(N2C[C@@H]3C[C@H]2C[C@H]3OCc2c(-c3c(Cl)cccc3Cl)noc2C2CC2)cc1` (stereo partly drawn) [Compound I-217, 4-[(1S,4S,5R)-5-{[5-cyclopropyl-3-(2,6-dichlorophenyl)-1,2-oxazol-4-yl]methoxy}-2-azabicyclo[2.2.1]heptan-2-yl]-N-(3-hydroxybutanesulfonyl)benzamide], in test [1], the Emax came out at 111% and the concentration giving a half-maximal response (EC50) was 1 nM. Besides, in test [2], the pEC50 stood at 9.9 and the Emax amounted to 142%.

In the case of `CCc1cc(C(=O)O)cc2sc(N3C(=O)[C@@H]4C[C@H]3C[C@H]4OCc3c(-c4c(Cl)cccc4Cl)noc3C3CC3)nc12` [Compound I-294, 2-[(1S,4R,5R)-5-{[5-cyclopropyl-3-(2,6-dichlorophenyl)-1,2-oxazol-4-yl]methoxy}-3-oxo-2-azabicyclo[2.2.1]heptan-2-yl]-4-ethyl-1,3-benzothiazole-6-carboxylic Acid], in test [1], the Emax came out at 104% and the EC50 is 2.51 nM. Also, the negative-log EC50 (pEC50) in test [2] is reported as 8.2. For the same molecule, the Emax in test [2] (setting [3]) was determined as 82%.
